Laboratory results: patent US4133876A, “Antibiotic A-32887 and process for production thereof” (Eli Lilly and Company, priority 1977, dated 1979)

Experiments:
Bacillus subtilis = assay: Conventional disc-diffusion method (Table VIII); type: cell-based; conditions: as Na-K salts, samples at 1 mg/ml
Protocol: (§1) The antimicrobial activity of two typical A-32887 acyl ester derivatives is compared with that of A-32887 (each as Na-K salts) in Table VIII. Activity against illustrative bacteria is measured by the conventional disc-diffusion method. In addition, the results of a conventional paper-disc agar-diffusion assay system (Plate Assay) against Bacillus subtilis ATCC 6633 are reported. The activity in this test is quantitated and uses a dried-broth reference standard which is assigned an arbitrary potency of 100 units/ml. The samples were assayed at 1 mg/ml.

Micrococcus lutea = assay: Conventional disc-diffusion method (Table VIII); type: cell-based; conditions: as Na-K salts; samples at 1 mg/ml
Protocol: as §1

Staphylococcus aureus = assay: Conventional disc-diffusion method (Table VIII); type: cell-based; conditions: as Na-K salts; samples at 1 mg/ml
Protocol: as §1

[1] = type: physicochemical; conditions: 80% aqueous dimethylformamide
Source text: Electrometric titration of A-32887 methyl ether derivative (Na salt) in 80% aqueous dimethylformamide indicates the presence of a titratable group with a pKa value of about 5.4.

[2] = system: Bacillus subtilis ATCC 6633; assay: Paper-disc agar-diffusion assay system (Plate Assay, Table VIII); type: cell-based; conditions: samples at 1 mg/ml, as Na-K salts; dried-broth reference standard = 100 units/ml
Protocol: as §1

[3] = Ruminal VFA in fistulated feed-lot cattle (Table XV); type: in vivo; conditions: 30 g/ton, 24-day treatment
Source text: The procedure used in testing cattle in this manner is also described in Raun's U.S. Pat. No. 3,839,557 (see Example 9). Table XV summarizes the results of such a test with A-32887 (Na-K salt) wherein five feed-lot cattle weighing approximately 425 kg. were in each group and the mean percent increases in ruminal propionate concentration were averaged over four analyses in a 24-day treatment period.

[4] = system: E. tenella and E. acervulina; assay: Anticoccidial activity in chicks (Table XII); type: in vivo; parameters: Average Lesion Score, Intestinal / Average Lesion Score, Cecal: scale not given here; conditions: for Oocysts Per Bird: days 7-9; for Percent Mortality: due to coccidiosis; for Percent Weight Gain: normal controls = 100%
Protocol: ^1 6 replicates; 5 birds each
^2 Infection inoculum 48 hours post-medication onset
^4 Normal controls = 100%

guinea pig left atria = assay: Cardiac contractility of guinea pig left atria; conditions: 10^-5 molar; percentage of maximal force elicited by a challenge dose of norepinephrine
Source text: The A-32887 compounds are potential cardiotonic agents. In tests using guinea pig left atria, A-32887 (Na-K salt) increased cardiac contractility. Response to this test is expressed as a percentage of the maximal force that could be elicited by a challenge dose of norepinephrine. A-32887 (Na-K salt), at a 10^-5 molar concentration, increased cardiac contractility by 28.0 ± 7.1 percent.

powdery mildew = assay: Powdery mildew disease in bean plants, spray; type: in vivo; conditions: 400 ppm spray
Source text: The A-32887 compounds are also useful in the treatment of certain plant diseases.

Mycoplasma hyorhinis = assay: In vitro broth-dilution studies, mycoplasma (Table X); type: cell-based
Source text: (§2) Activity against mycoplasma is another useful aspect of the antimicrobial activity of the A-32887 compounds. Mycoplasma species, also known as pleuropneumonia-like (PPLO) organisms, are pathogenic to man and various animals. Anti-mycoplasma agents are especially needed by the poultry industry. The MIC's of A-32887 (Na-K salt) against typical mycoplasma species, as determined by in vitro broth-dilution studies, are summarized in Table X: […]

Mycoplasma hyopneumoniae = assay: as above; type: cell-based
Source text: as §2

Mycoplasma synoviae = assay: as above; type: cell-based
Source text: as §2

Mycoplasma gallisepticum = assay: as above; type: cell-based
Source text: as §2

acute swine dysentery = assay: Swine dysentery test in pigs (Table XVII); type: in vivo
Protocol: In another aspect the A-32887 compounds are useful in the prevention and control of swine dysentery. A preferred method of administration to swine is by incorporation of an appropriate amount of an A-32887 compound into the feed ration. […] In this test, groups of four pigs were challenged orally with 5.0 ml of a colon-content/tissue suspension prepared from pigs suffering from acute swine dysentery. Treated pigs were challenged 24 hours after initiating feed treatment. The test was carried out over a period of 26 days, observing pigs daily, and weighing them weekly and on day 26.
*Fecal material for each group was rated daily with 0=normal, 1=slight
blood or mucus, 2=moderate blood or mucus, 3=marked blood or mucus. Index
is the total score per treatment for 25 days.

coccidia = assay: Feeding experiments in young chickens challenged with coccidia; type: in vivo, Eimeria species; conditions: feed levels as low as 40 ppm
[5] = system: Pasteurella multocida (bovine); assay: Standard agar-dilution assay, MIC (Table VI); type: cell-based
Source text: (§3) Antibiotic A-32887 inhibits the growth of pathogenic bacteria, especially gram-positive bacteria. Table VI summarizes the minimal inhibitory concentrations (MIC), as measured by standard agar-dilution assays, at which A-32887 (Na-K salt) inhibits certain bacteria.

Streptococcus faecalis = assay: Standard agar-dilution assay, MIC (Table VI); type: cell-based
Source text: as §3

Staphylococcus sp. = assay: Standard agar-dilution assay, MIC (Table VI); type: cell-based
Source text: as §3

[6] = system: Staphylococcus aureus 3055; assay: Standard agar-dilution assay, MIC (Table VI); type: cell-based
Source text: as §3

Streptococcus sp. = assay: Standard agar-dilution assay, MIC (Table VI); type: cell-based
Source text: as §3

rumen flora = assay: Volatile-fatty-acid (VFA) production in treated vs control flasks (Table XIV)
[7] = Acute toxicity, intraperitoneal, mice; type: in vivo; conditions: intraperitoneally
E. tenella and E. maxima = assay: Anticoccidial activity in chicks (Table XI); type: in vivo; parameters: Average Lesion Score, Total Intestinal / Average Lesion Score, Cecal: scale not given here; conditions: for Mortality: due to coccidiosis; for Feed/Gain: pens without deaths only; for Average Weight Gain: per survivor
Protocol: ^1 70,000 oocysts/bird of each of E. tenella and E. maxima
^2 Infected 48 hours postmedication; terminated seven days
^3 Four replicates; five birds/replicate
^6 Pens without deaths only

ATPase = ATPase inhibition in vitro using NaCl; type: biochemical
Source text: In yet another aspect, the A-32887 compounds are active as inhibitors of the enzyme ATPase. ATPase, an alkali-metal-sensitive enzyme found in cell membranes, is involved in the energy necessary for active transport. "Active transport" refers to the energy-requiring series of operations whereby intracellular and extracellular fluids maintain their compositions. Inhibitors of ATPase reduce the energy required for active transport.

[8] = Ruminal propionate in sheep (Table XVI); type: in vivo; conditions: 15 g/ton, 19-day treatment, control 26.5
Source text: Table XVI summarizes the results of a similar test in sheep with A-32887 (Na-K salt) wherein four sheep were in each group and the mean percent increases in ruminal propionate concentration were averaged over four analyses in a 19-day treatment period.

[9] = system: E. tenella, E. maxima and E. acervulina; assay: Anticoccidial activity in chicks (Table XIII); type: in vivo; parameters: Average Lesion Score, Intestinal / Average Lesion Score, Cecal: scale not given here; conditions: for Percent Mortality: due to coccidiosis; for Percent Weight Gain: per survivor; for Oocysts/Bird: total days 5, 6 and 7 post-inoculation; for Feed/Gain: pens without deaths only
Source text: ^2 Six replicates; 5 birds/each
^5 Pens without deaths, only
^6 Total days 5, 6 and 7 post-inoculation

CO[C@H]1CC[C@H](OC2[C@@H](C)[C@@](C)(O)O[C@H]([C@H]3CC[C@H]([C@@H]4CC[C@H]([C@@]5(C)O[C@]6(O[C@H](C[C@@H]7O[C@](O)([C@@H](O)C(=O)O)[C@@H](C)[C@H](OC)[C@@]7(C)OC)C[C@@H](OC)[C@H]6C)[C@H](C)[C@H]5OC)O4)O3)[C@H]2C)O[C@@H]1C.[K+].[Na+] (stereo partly shown) [A-32887]
ion-binding and ion-transport properties (Ionophore properties): exhibits ion-binding and iontransport properties | cation permeability of membranes (Ionophore properties; natural and artificial membranes): alters the cation permeability | Activity by disc-diffusion, Bacillus subtilis* (Bacillus subtilis; Minimal media): 30 | Activity by disc-diffusion, Bacillus subtilis (Bacillus subtilis): 18 | Activity by disc-diffusion, Micrococcus lutea (Micrococcus lutea): 16 | Activity by disc-diffusion, Staphylococcus aureus (Staphylococcus aureus): 16 | pKa [1]: 4.60 | Plate Assay [2]: 1350 units/ml

CO[C@H]1CC[C@H](OC2[C@@H](C)[C@@](C)(O)O[C@H]([C@H]3CC[C@H]([C@@H]4CC[C@H]([C@@]5(C)O[C@]6(O[C@H](C[C@@H]7O[C@](O)([C@@H](O)C(=O)O)[C@@H](C)[C@H](OC)[C@@]7(C)OC)C[C@@H](OC)[C@H]6C)[C@H](C)[C@H]5OC)O4)O3)[C@H]2C)O[C@@H]1C.[K+].[Na+] (stereo partly shown) [A-32887 (Na-K salt)]
Molar % Butyrate ([3]; control 8.1): 9.6 Molar % | Molar % Propionate ([3]; control 17.4, * P<0.01): 27.1 Molar % | Molar % Acetate ([3]; control 74.5, * P<0.01): 63.3 Molar % | Total VFA ([3]; control 79.9): 79.6 mM/1. | Average Lesion Score, Cecal ([4]; 62 ppm): 0.1 | Average Lesion Score, Intestinal ([4]; 62 ppm): 0.9 | Oocysts Per Bird ([4]; 62 ppm): 16.40 1×10^6 | Percent Mortality ([4]; 62 ppm): 0% | Percent Weight Gain ([4]; 62 ppm): 97% | Average Lesion Score, Cecal ([4]; 77 ppm): 0 | Average Lesion Score, Intestinal ([4]; 77 ppm): 0.7 | Oocysts Per Bird ([4]; 77 ppm): 5.48 1×10^6 | Percent Mortality ([4]; 77 ppm): 0% | Percent Weight Gain ([4]; 77 ppm): 90% | Average Lesion Score, Cecal ([4]; 100 ppm): 0.1 | Average Lesion Score, Intestinal ([4]; 100 ppm): 0.6 | Oocysts Per Bird ([4]; 100 ppm): 1.28 1×10^6 | Percent Mortality ([4]; 100 ppm): 0% | Percent Weight Gain ([4]; 100 ppm): 85% | Average Lesion Score, Cecal ([4]; 121 ppm): 0 | Average Lesion Score, Intestinal ([4]; 121 ppm): 0.3 | Oocysts Per Bird ([4]; 121 ppm): 0.4 1×10^6 | Percent Mortality ([4]; 121 ppm): 0% | Percent Weight Gain ([4]; 121 ppm): 73% | increase in cardiac contractility (guinea pig left atria): 28.0 ± 7.1% | inhibition of powdery mildew disease (powdery mildew): inhibits powdery mildew disease | MIC (Mycoplasma hyorhinis): 25.0 µg/mL | MIC (Mycoplasma hyopneumoniae): 6.25 µg/mL | MIC (Mycoplasma synoviae): 3.12 µg/mL | MIC (Mycoplasma gallisepticum): 12.5 µg/mL | Final-Average Wt. per Pig (acute swine dysentery; 100 g/ton in feed, 26 days): 30.3 lbs | No. Died per No. in Group (acute swine dysentery; 100 g/ton in feed, 26 days): 0/4 | No. with Colon Lesions/No. in Group (acute swine dysentery; 100 g/ton in feed, 26 days): 2/4 | Diarrhea Index (acute swine dysentery; 100 g/ton, total score per treatment for 25 days (0=normal to 3=marked blood or mucus)): 22 | Mortality (coccidia): decreases | number of lesions (coccidia): decreases | MIC [5]: 50.00 µg/mL | MIC (Streptococcus faecalis): 6.25 µg/mL | MIC (Staphylococcus sp.): 1.56 µg/mL | MIC [6]: 6.25 µg/mL | MIC (Streptococcus sp.): 3.12 µg/mL | Ratio of Treated to Control, Total VFA mM/1. (rumen flora; 1 mcg/ml): 0.7498 | Ratio of Treated to Control, Molar % Acetate (rumen flora; 10 mcg/ml): 0.8857 | Ratio of Treated to Control, Molar % Butyrate (rumen flora; 10 mcg/ml): 0.7012 | Ratio of Treated to Control, Total VFA mM/1. (rumen flora; 10 mcg/ml): 1.0086 | Ratio of Treated to Control, Molar % Propionate (rumen flora; 10 mcg/ml, * P<0.01): 1.2919 | LD50 [7]: 37.5 mg/kg × 1 | Average Lesion Score, Cecal (E. tenella and E. maxima; 40 ppm): 1.6 | Average Lesion Score, Total Intestinal (E. tenella and E. maxima; 40 ppm): 4.9 | Mortality (E. tenella and E. maxima; 40 ppm in feed): 0 | Feed/Gain (E. tenella and E. maxima; 40 ppm): 1.89 | Average Weight Gain (E. tenella and E. maxima; 40 ppm): 176 g | Average Lesion Score, Cecal (E. tenella and E. maxima; 60 ppm): 0.6 | Average Lesion Score, Total Intestinal (E. tenella and E. maxima; 60 ppm): 5.9 | Mortality (E. tenella and E. maxima; 60 ppm in feed): 0 | Feed/Gain (E. tenella and E. maxima; 60 ppm): 1.83 | Average Weight Gain (E. tenella and E. maxima; 60 ppm): 155 g | Average Lesion Score, Cecal (E. tenella and E. maxima; 80 ppm): 0.3 | Average Lesion Score, Total Intestinal (E. tenella and E. maxima; 80 ppm): 3.0 | Mortality (E. tenella and E. maxima; 80 ppm in feed): 0 | Feed/Gain (E. tenella and E. maxima; 80 ppm): 1.83 | Average Weight Gain (E. tenella and E. maxima; 80 ppm): 182 g | Average Lesion Score, Cecal (E. tenella and E. maxima; 100 ppm): 0 | Average Lesion Score, Total Intestinal (E. tenella and E. maxima; 100 ppm): 1.6 | Mortality (E. tenella and E. maxima; 100 ppm in feed): 0 | Feed/Gain (E. tenella and E. maxima; 100 ppm): 1.87 | Average Weight Gain (E. tenella and E. maxima; 100 ppm): 159 g | ATPase inhibition (ATPase): inhibit ATPase | Molar % Propionate [8]: 29.5 Molar % | Average Lesion Score, Cecal ([9]; 25 ppm): 3.9 | Average Lesion Score, Intestinal ([9]; 25 ppm): 1.1 | Percent Mortality ([9]; 25 ppm): 35% | Percent Weight Gain ([9]; 25 ppm): 57% | Oocysts/Bird ([9]; 25 ppm): 64.83 1×10^6 | Average Lesion Score, Cecal ([9]; 50 ppm): 3.8 | Average Lesion Score, Intestinal ([9]; 50 ppm): 1.8 | Percent Mortality ([9]; 50 ppm): 0% | Feed/Gain ([9]; 50 ppm): 1.67 | Percent Weight Gain ([9]; 50 ppm): 79% | Oocysts/Bird ([9]; 50 ppm): 35.78 1×10^6 | Average Lesion Score, Cecal ([9]; 75 ppm): 2.0 | Average Lesion Score, Intestinal ([9]; 75 ppm): 0.9 | Percent Mortality ([9]; 75 ppm): 0% | Feed/Gain ([9]; 75 ppm): 1.49 | Percent Weight Gain ([9]; 75 ppm): 90% | Oocysts/Bird ([9]; 75 ppm): 24.35 1×10^6 | Average Lesion Score, Cecal ([9]; 100 ppm): 0.1 | Average Lesion Score, Intestinal ([9]; 100 ppm): 0 | Percent Mortality ([9]; 100 ppm): 0% | Feed/Gain ([9]; 100 ppm): 1.50 | Percent Weight Gain ([9]; 100 ppm): 93% | Oocysts/Bird ([9]; 100 ppm): 6.49 1×10^6
